Key:
[1] = Storage stability of amorphous tenofovir alafenamide hemifumarate and premixes, PXRD pattern; assay type: physicochemical
Procedure: The amorphous form of tenofovir alafenamide hemifumarate of the present disclosure may be characterized by a PXRD pattern. Thus, the PXRD patterns of the amorphous form of tenofovir alafenamide hemifumarate were obtained on BRUKER D-8 Discover powder diffractometer equipped with goniometer of θ/2θ configuration and Lynx Eye detector. The Cu-anode X-ray tube was operated at 40 kV and 30 mA. The experiments were conducted over the 2θ range of 2.0°-50.0°, 0.030° step size and 0.4 seconds step time.
Thus, the PXRD patterns of several embodiments of the present disclosure were obtained on BRUKER D-8 Discover powder diffractometer equipped with goniometer of θ/2θ configuration and Lynx Eye detector. The Cu-anode X-ray tube was operated at 40 kV and 30 mA. The experiments were conducted over the 2θ range of 2.0°-50.0°, 0.030° step size and 0.4 seconds step time.

[2] = Storage stability of amorphous tenofovir alafenamide hemifumarate and premixes, HPLC purity
Procedure: As used herein, a compound or pharmaceutical composition is considered “stable” where the HPLC purity of the compound or premix changes by less than about 1% when stored at 5±3° C. and/or at 25° C./60% relative humidity (RH). In certain embodiments, the “stable” compound or premix is stored at 5±3° C. In other embodiments, the “stable” compound or premix is stored at 25° C./60% relative humidity (RH).
Further, the stability of certain embodiments of the premix of amorphous tenofovir alafenamide hemifumarate can be measured by PXRD and HPLC. Thus, HPLC analyses were also performed. HPLC separations were performed on a Waters Alliance 2695 HPLC system with UV detector. Data was collected and analyzed with Empower chromatography software or equivalent. The separation was performed on an X-Bridge Phenyl, 250×4.6 mm, 5 μm column with a mobile phase flow rate of 0.7 mL/min and injection volume of 10 μL. Separations were performed by gradient elution with mobile 1.75 mM tetrabutylammonium bisulfate (pH 2.0) in 5% THF (mobile phase A) and 70:30 acetonitrile:methanol (mobile phase B) as specified in the table below.
The column oven temp was 20° C. and UV detector was set to 260 nm. The purity of the premix was also measured by HPLC using similar conditions.

CC(C)OC(=O)[C@H](C)N[P@](=O)(CO[C@H](C)Cn1cnc2c(N)ncnc21)Oc1ccccc1 [tenofovir alafenamide hemifumarate]
PXRD ([1]; at 5 ± 3° C., 3 months): Stable
PXRD ([1]; at 5 ± 3° C., 6 months): Stable
PXRD ([1]; at 5 ± 3° C., Initial): Amorphous
PXRD ([1]; at 25° C./60% RH, 3 months): Stable
PXRD ([1]; at 25° C./60% RH, 6 months): Stable
PXRD ([1]; at 25° C./60% RH, Initial): Amorphous
HPLC purity (%) ([2]; at 5 ± 3° C., 3 months): 99.45%
HPLC purity (%) ([2]; at 5 ± 3° C., 6 months): 99.54%
HPLC purity (%) ([2]; at 5 ± 3° C., Initial): 99.53%
HPLC purity (%) ([2]; at 25° C./60% RH, 3 months): 99.36%
HPLC purity (%) ([2]; at 25° C./60% RH, 6 months): 99.48%
HPLC purity (%) ([2]; at 25° C./60% RH, Initial): 99.53%
degradation or change in PXRD pattern on storage ([2]; stored at 5±3° C. and at 25° C./60% RH, 3 and 6 months, HPLC and PXRD): no significant degradation or change in PXRD pattern

Reference: patent publication US20200261479A1, “PROCESSES FOR THE PREPARATION OF AMORPHOUS TENOFOVIR ALAFENAMIDE HEMIFUMARATE AND A PREMIX THEREOF” (MYLAN LABORATORIES LIMITED, priority 2015, published 2020)
